Laboratory results as given in patent US6376666B1 (Nauchno-Issledovatelsky Institut Farmakologii Rossiiskoi …, priority 1994, dated 2002).
Marks after values point to notes of the source that are not given here.

Key:
[1] = test system: ischemized myocardium of cats; assay: contractile and pump functions and ATP level of ischemized myocardium (20-40 min occlusion, reperfusion); format: in vivo
Method: The effects of this compound on contractile and pump functions of ischemized myocardium were studied in cats weighing 3,0-4,5 kg under anesthesia with nembutal (40 mg/kg). […] The phase curve of blood flow in ascending part of the aortic arch was recorded with electromagnetic blood flowmeter MFV-1200 (“Nihon-Kohden”, Japan). Hemodynamics, heart activity values and the number of arrhythmia were calculated. In the experiments with 40 min ischemia immediately after 60 min the intact and ischemized zones of left ventricle were dissected and freezed in liquid nitrogen. ATP level was measured using hexokinase method in these zones. 4 series of experiments (2-control and 2-basic) were conducted in 12 cats in each. For statistical calculation the t-Student and Fisher's precision test were used.

[2] = test system: ischemized myocardium of cats; assay: ST-segment elevation during 5 min occlusions of coronary artery (acute coronary deficiency); format: in vivo; conditions: for change in mean elevation of ST-segment vs control occlusion: cats, 1.0 mg/kg i.v.
Method: These experiments were conducted in cats weighing 2,5-4,0 kg under anasthesia by i.v. injection of nembutal (40 mg/kg) in open chest conditions. Epicardium electrogram in 3-4 leads was registered in “Mingograph-81”. The value of mean elevation of ST-segment during 5 min occlusions of anterior left descending coronary artery with 15 min reperfusions between them was the main index of intensity of reversible ischemized damage of myocardium.
The statistical calculation was carried out with non-parametric Wilcocson method for associated variants.

[3] = test system: outbred male mice; assay: rotarod test (myorelaxant activity); format: in vivo; conditions: for time of remaining on the rotarod: cut-off 120 sec
Method: The myorelaxant activity of choosen compounds were studied in the outbred male mice weighing 22-25 g in rotarod test [Voronina T. A. et al., in: “Phenazepam”, Naukova Dumka, Kiev, 1982, p.145]. The animals were placed on the horizontal rotarod (D=2 cm) calibrated for a fixed speed of 4 rpm. According to the rotarod experimental protocol, normal motor coordination was defined by the ability of the animals to remain on the rotarod for an arbitrarily selected time of 120 sec.

[4] = test system: outbred mice; assay: acute toxicity after per os administration; conditions: mouse, in vivo
Method: (§1) The acute toxicity was measured in outbred mice after per os administration of used drugs in the 1% starch suspension. The lethal doses were calculated according to Litchfield-Wilcocson' method. […].

[5] = acute toxicity after per os administration; conditions: mouse, in vivo, oral; outbred mice, per os, 1% starch suspension, Litchfield-Wilcocson
Method: as §1

[6] = 40 min occlusion, 60 min reperfusion

## CCOc1ccc2nc(SCCN(CC)CC)[nH]c2c1 [Compound IX, 2-[2-(Diethylamino)ethylthio]-5-ethoxybenz-imidazole]
[1]; 20 min occlusion, 30 min reperfusion
  effect on number of arrhythmias during occlusion and reperfusion, in words: decreased the number of arrhythmias
[1]; 20 min occlusion, 30 min reperfusion, 1,0 mg/kg bolus +50 mcg/kg/min i.v.
  effect on cardiac output, in words: prevented the decrease in cardiac output
[1]; 20 min occlusion, 30 min reperfusion, 1,0 mg/kg bolus +50 mcg/kg/min i.v. during 30 min
  effect on inhibition of contractile function of myocardium induced by ischemic damage, in words: significantly prevents the inhibition of contractile function of myocardium
[1]; [6]
  effect on ATP level in intact zones of myocardium, in words: did not change it in the intact zones
  effect on cardiac output, in words: no effect on changes in cardiac output
  effect on stroke volume, in words: prevented the decrease in stroke volume
[1]; 40 min occlusion, 60 min reperfusion, hexokinase method
  effect on ATP level in ischemized myocardium, in words: increased the ATP level in the ischemized myocardium
[1]; critical and mild ischemia
  effect on number of arrhythmias induced by occlusion and reperfusion, in words: did not reduced the number of arrhythmias
[1]; critical ischemia: 40 min occlusion, 60 min reperfusion
  effect on inhibition of contractile function of heart, in words: prevented the inhibition of contractile function of heart
[2]; occlusion 20 min after injection, 15 sec of reperfusion
  change in mean elevation of ST-segment vs control occlusion: −0.8* mv
[2]; occlusion 20 min after injection, 30 sec of occlusion
  change in mean elevation of ST-segment vs control occlusion: −0.7 mv
[2]; occlusion 20 min after injection, 2 min of occlusion
  change in mean elevation of ST-segment vs control occlusion: −1.4* mv
[2]; occlusion 20 min after injection, 3 min of occlusion
  change in mean elevation of ST-segment vs control occlusion: −1.4* mv
[2]; occlusion 20 min after injection, 5 min of occlusion
  change in mean elevation of ST-segment vs control occlusion: −1.2 mv
[2]; occlusion 40 min after injection, 15 sec of reperfusion
  change in mean elevation of ST-segment vs control occlusion: −1.0* mv
[2]; occlusion 40 min after injection, 30 sec of occlusion
  change in mean elevation of ST-segment vs control occlusion: −0.5 mv
[2]; occlusion 40 min after injection, 1 min of occlusion
  change in mean elevation of ST-segment vs control occlusion: −0.5* mv
[2]; occlusion 40 min after injection, 2 min of occlusion
  change in mean elevation of ST-segment vs control occlusion: −1.0* mv
[2]; occlusion 40 min after injection, 3 min of occlusion
  change in mean elevation of ST-segment vs control occlusion: −1.2 mv
[2]; occlusion 40 min after injection, 5 min of occlusion
  change in mean elevation of ST-segment vs control occlusion: −1.0 mv
[2]; occlusion immediately after injection, 15 sec of reperfusion
  change in mean elevation of ST-segment vs control occlusion: −1.2* mv
[2]; occlusion immediately after injection, 30 sec of occlusion
  change in mean elevation of ST-segment vs control occlusion: −1.8** mv
[2]; occlusion immediately after injection, 1 min of occlusion
  change in mean elevation of ST-segment vs control occlusion: −1.9** mv
[2]; occlusion immediately after injection, 2 min of occlusion
  change in mean elevation of ST-segment vs control occlusion: −2.4** mv
[2]; occlusion immediately after injection, 3 min of occlusion
  change in mean elevation of ST-segment vs control occlusion: −1.9** mv
[2]; occlusion immediately after injection, 5 min of occlusion
  change in mean elevation of ST-segment vs control occlusion: −2.2** mv
[2]; cats, 1,0 mg/kg i.v.
  duration of anti-ischemic effect after injection: 40 min
  effect on mean elevation of ST-segment during 5 min occlusion, in words: decreased the mean elevation of ST-segment

## CCOc1ccc2nc(SCCN3CCOCC3)[nH]c2c1 [XII, 2-[2-(Morpholino)ethylthio]-5-ethoxybenzimidazole]
[3]; 0.01 mg/kg
  time of remaining on the rotarod: 120.0 + 0 sec
[3]; 0.1 mg/kg
  time of remaining on the rotarod: 120.0 + 0 sec
[3]; 1.0 mg/kg
  time of remaining on the rotarod: 120.0 + 0 sec
[3]; 5.0 mg/kg
  time of remaining on the rotarod: 120.0 + 0 sec
[3]; 10.0 mg/kg
  time of remaining on the rotarod: 120.0 + 0 sec
[3]; 20.0 mg/kg
  time of remaining on the rotarod: 118.8 ± 1.6 s
[3]; 50.0 mg/kg
  time of remaining on the rotarod: 111.3 ± 7.5 s
[3]; dose range 0,01 mg/kg-50 mg/kg
  effect on motor coordination in rotarod test, in words: no effect on the motor coordination
[4]
  toxicity, conclusion in words: not toxic
[5]
  LD50: 1160 mg/kg
